According to ChEMBL document CHEMBL3397005, “Synthesis and antiproliferative activity of novel polynuclear heterocyclic compounds derived from 2,3-diaminophenazine” (Eur J Med Chem, 2015):
≈ marks a conversion by molar mass, not a printed value. Calls of active or inactive are those of the source. The calls are words filed in the database; no cut-off is given here.

Assays:
HCT-116 [1] = assay: Inhibition of tyrosine kinase in human HCT116 cells at IC50 after 24 hrs by ELISA relative to control; format: cell-based
A549 [2] = assay: Antiproliferative activity against human A549 cells; format: functional, cell-based
[3] = (§1) Antiproliferative activity against human HCT116 cells; format: functional, cell-based; conditions: HCT-116
A549 [4] = assay: Inhibition of tyrosine kinase in human A549 cells at IC50 after 24 hrs by ELISA relative to control; format: cell-based
HCT-116 [5] = assay: as §1; format: functional, cell-based

Structure (SMILES) | IC50 (A549 [2]) [µg/mL] | inhibition (HCT-116 [1]) [%] | IC50 [3] [µg/mL] | inhibition (A549 [4]) [%] | Activity (A549 [2]) | Activity (HCT-116 [5])
Clc1ccc(-c2nc3cc4nc5ccccc5nc4cc3[nH]2)c(Cl)c1 | 11.5 (≈ 31.5 µM) | 12 | 6.8 (≈ 18.6 µM) | 16 |  | 
Nc1cc2nc3ccccc3nc2cc1N | 8.8 (≈ 41.9 µM) | 72 | 6 (≈ 28.5 µM) | 80 |  | 
CC1CC(=O)Nc2cc3nc4ccccc4nc3cc2N1 (stereo unspecified) |  |  |  |  | inactive | inactive
O=C(Nc1cc2nc3ccccc3nc2cc1NC(=O)c1ccccc1)c1ccccc1 | 23.6 (≈ 56.4 µM) | 0.5 | 17.5 (≈ 41.8 µM) | 1 |  | 
c1ccc(-c2nc3cc4nc5ccccc5nc4cc3[nH]2)cc1 |  |  |  |  | inactive | inactive
O=c1oc(=O)c2[nH]c3cc4nc5ccccc5nc4cc3[nH]c1=2 | 27.6 (≈ 90.7 µM) | 0.4 | 14.6 (≈ 48 µM) | 2 |  | 
CSc1nc2cc3nc4ccccc4nc3cc2[nH]1 | 8.4 (≈ 31.5 µM) | 84 | 5.2 (≈ 19.5 µM) | 85 |  | 
O=c1[nH]c2cc3nc4ccccc4nc3cc2[nH]/c1=N/Nc1ccccc1 |  |  |  |  | inactive | inactive
c1ccc2nc3cc4[nH]cnc4cc3nc2c1 | 21.7 (≈ 98.5 µM) | 3 | 11.4 (≈ 51.8 µM) | 5 |  | 
O=c1[nH]c2cc3nc4ccccc4nc3cc2[nH]c1=O |  |  |  |  | inactive | inactive
C(=C\c1nc2cc3nc4ccccc4nc3cc2[nH]1)/c1ccccc1 |  |  |  |  | inactive | inactive
S=c1[nH]c2cc3nc4ccccc4nc3cc2[nH]1 | 7.7 (≈ 30.5 µM) | 85 | 4.4 (≈ 17.4 µM) | 86 |  | 
c1ccc2nc3c(nc2c1)Nc1cc2nc4ccccc4nc2cc1N3 |  |  |  |  | inactive | inactive
CCCc1nc2cc3nc4ccccc4nc3cc2[nH]1 | 8.4 (≈ 32 µM) | 64 | 6.5 (≈ 24.8 µM) | 70 |  | 
O=C1CC(=O)Nc2cc3nc4ccccc4nc3cc2N1 |  |  |  |  | inactive | inactive
CCOC(=O)/C(=N/Nc1ccccc1)Nc1cc2nc3ccccc3nc2cc1N |  |  |  |  | inactive | inactive

Now from value to molecule, other results behind:

IC50 (A549 [2]) [µg/mL] | Structure (SMILES) | inhibition (HCT-116 [1]) [%] | IC50 [3] [µg/mL] | inhibition (A549 [4]) [%] | Activity (A549 [2]) | Activity (HCT-116 [5])
19 (≈ 45 µM) | CCOC(=O)c1nn(-c2ccc(C)cc2)c2nc3cc4nc5ccccc5nc4cc3n12 | 18 | 9.6 (≈ 22.7 µM) | 14 |  | 
13.8 (≈ 41.7 µM) | Clc1cccc(-c2nc3cc4nc5ccccc5nc4cc3[nH]2)c1 | 17 | 7.9 (≈ 23.9 µM) | 15 |  | 
9.8 (≈ 25.6 µM) | Nc1cc2nc3ccccc3nc2cc1/N=N/C1C(=O)ON=C1c1ccccc1 (stereo unspecified) | 68 | 6.8 (≈ 17.8 µM) | 72 |  | 
22 (≈ 55.6 µM) | CC1=NN(c2ccccc2)C(=O)C1/N=N/c1cc2nc3ccccc3nc2cc1N (stereo unspecified) | 2 | 11.9 (≈ 30.1 µM) | 4 |  | 
22.3 (≈ 61.7 µM) | CC1(C)CC(=O)C(/N=N/c2cc3nc4ccccc4nc3cc2N)C(=O)C1 | 0.6 | 13.9 (≈ 38.5 µM) | 2 |  | 
21 (≈ 51.4 µM) | CCOC(=O)c1nn(-c2ccccc2)c2nc3cc4nc5ccccc5nc4cc3n12 | 4 | 11.2 (≈ 27.4 µM) | 11 |  | 
17.6 (≈ 39.7 µM) | CCOC(=O)c1nn(-c2ccc(Cl)cc2)c2nc3cc4nc5ccccc5nc4cc3n12 | 37 | 8.75 (≈ 19.8 µM) | 50 |  | 
